Where “and” joins values, the source holds several entries; their conditions need not be identical. Equal values may be shown once.
Test system: 192522-019-R-J2-PDC complex tumor spheroid viability
Assay: Anticancer human tumor 192522-019-R-J2-PDC patient-derived colon adenocarcinoma cell line growth inhibition [POLQ]
Conditions: for viability, T/C: stronger effect = lower value
Protocol: Multicellular complex tumor spheroid response to Polymerase (POL) inhibitors (novobiocin, ART-558, RP6685) in combination with a variety of drugs and investigational agents in selected tumor cell lines
The POL inhibitors (novobiocin, ART-558, and RP6685) were evaluated both individually and in combination with standard of care and investigational anticancer small molecules within a complex spheroid model of solid tumors. . Complex spheroids include a stromal component modeled by human endothelial cells (HUVEC) and fibroblasts modeled by human mesenchymal stem cells (MSCs). The concentration ranges selected for each drug and investigational agent were based upon clinically achievable concentrations if the clinical Cmax of the agent was known.
Compounds. The drugs and investigational agents: novobiocin (NSC847541), ART-558 (NSC835418), RP-6685 (NSC848927), peposertib (NSC802822), ceralasertib (NSC780249), elimusertib (NSC800525), camonsertib (NSC841442), AZD-1390 (NSC803789), olaparib (NSC753686), talazoparib (NSC767125), rucaparib (NSC756644), sotorasib (NSC818433), MRTX-1133 (NSC836407), SN-38 (NSC673596), topotecan (NSC609699), epotoside (NSC141540), doxorubicin (NSC123127), gemcitabine (NSC613327), 5-fluorouracil (NSC19893), paclitaxel (NSC125973), vemurafenib (NSC761431), MSA-2 (NSC828583), SN-011 (NSC837082), adavosertib (NSC754352), prexasertib (NSC758257), carboplatin (NSC241240) and oxaliplatin (NSC266046), were obtained from the National Cancer Institute (NCI) Developmental Therapeutics Program Chemical Repository (21). The FDA-approved anticancer drug set is available from the Developmental Therapeutics Program at https://dtp.cancer.gov/organization/dscb/obtaining/. […] The stock solutions were prepared in dimethyl sulfoxide (DMSO, Sigma-Aldrich, St. Louis, MO, cat. D2650), except for the platinum compounds which were prepared in saline (Quality Biological, Gaithersburg, MD, cat. 114-055-101), at 800-fold the tested concentration and stored at -70 degrees C prior to their use. All drugs and investigational agents were tested over a range starting from a high concentration at or near the clinical Cmax and decreasing in half-log increments. If the clinical Cmax for an agent had not been determined, the highest concentration tested was 10 microM, except for SN-38, which was tested at a high concentration of 1 microM.
Cell Culture. All cells were maintained in an incubator at 37 degrees C and 5% CO2 with 95% humidity. The PDC lines were cultured according to standard operating procedures established by the NCI PDMR (https://pdmr.cancer.gov). Table 3 of the manuscript, lists the cell lines along with the number of the three cell types plated to form the mct-spheroids and media for tumor cell growth. After thawing, all PDC lines, except 997537-175-T-J1-PDC and 415267-285-R-J2-PDC, were cultured in Matrigel-coated flasks prepared with a working solution of 1X Ham's F-12 nutrient mix, without supplementation (Thermo Fisher Scientific, cat. 11765054), 100 U/mL penicillin-streptomycin (Thermo Fisher Scientific, cat. 15140122), and 2.5% Matrigel (Corning Inc., Corning, NY, cat. 354248) for the first three passages. The two PDC lines 997537-175-T-J1-PDC and 415267-285-R-J2-PDC were cultured on uncoated flasks. The 857933-349-R-J2-PDC line was cultured in 6C/Colon 1B media containing advanced DMEM/F-12 (Thermo Fisher Scientific, cat. 12634028), 10 mM HEPES (Thermo Fisher Scientific, cat. 15630080), 1X GlutaMAX supplement (Thermo Fisher Scientific, cat. 35050061), 0.1 mg/mL primocin (InvivoGen, San Diego, CA, cat. ant-pm-2), 10% defined fetal bovine serum, heat inactivated (HyClone Laboratories Inc., Logan, UT, cat. SH30070.03HI), 50% L-WRN conditioned media (ATCC, cat. CRL-3276), 1.25 mM N-Acetyl-L-cysteine (Sigma-Aldrich, cat. A9165), 10 mM nicotinamide (Sigma-Aldrich, cat. N0636), 1X B-27 supplement (Thermo Fisher Scientific, cat. 17504044), 1X N-2 supplement (Thermo Fisher Scientific, cat. […]

[1] = compound alone, run of 10/31/2023
[2] = compound alone, run of 11/06/2023
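Also: spheroids exposed to drugs for seven days before reading.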
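For viability, T/C in this document: 100% = DMSO vehicle control viability in luminescence.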

## CNCc1ccc(-c2[nH]c3cc(F)cc4c3c2CCNC4=O)cc1
Compound 0.0316 µM
  viability, T/C: 104% and 103% and 93%
Compound 0.1 µM
  viability, T/C: 98.4% and 101% and 86%
Compound 0.316 µM
  viability, T/C: 104% and 102% and 109%
Compound 1 µM
  viability, T/C: 107% and 120% and 102%
Compound 3.16 µM
  viability, T/C: 100% and 108% and 105%
Compound 10 µM
  viability, T/C: 96.8% and 103% and 92.1%
Curve of compound
  IC50: > 10 µM

## COC1C(OC(N)=O)C(O)C(Oc2ccc3c(O)c(NC(=O)c4ccc(O)c(CC=C(C)C)c4)c(=O)oc3c2C)OC1(C)C (configuration not stated)
Compound 0.0316 µM
  viability, T/C: 108% [middle of 13 runs]
Compound 0.1 µM
  viability, T/C: 106% [middle of 13 runs]
Compound 0.316 µM
  viability, T/C: 106% [middle of 13 runs]
Compound 1 µM
  viability, T/C: 103% [middle of 13 runs]
Compound 3.16 µM
  viability, T/C: 101% [middle of 13 runs]
Compound 10 µM
  viability, T/C: 106% [middle of 13 runs]
[1]
  IC50: > 10 µM

## COc1cc(C2c3cc4c(cc3C(OC3OC5COC(C)OC5C(O)C3O)C3COC(=O)C23)OCO4)cc(OC)c1O (configuration not stated)
Compound 0.0316 µM
  viability, T/C: 101% and 100% and 97.1%
Compound 0.1 µM
  viability, T/C: 96.5% and 97% and 97.3%
Compound 1 µM
  viability, T/C: 86.6% and 86% and 84.8%
Compound 3.16 µM
  viability, T/C: 59.9% (2×) and 65.3%
Compound 10 µM
  viability, T/C: 75.5% and 79.4% and 55.1%
Curve of compound
  IC50: > 10 µM

## COc1cc2cc(C(=O)CCC(=O)O)sc2cc1OC
Compound 0.0316 µM
  viability, T/C: 103% and 106% and 111%
Compound 0.1 µM
  viability, T/C: 102% and 92.6% and 99.8%
Compound 0.316 µM
  viability, T/C: 90.1% and 107% and 96.3%
Compound 1 µM
  viability, T/C: 96.8% and 99.9% and 102%
Compound 3.16 µM
  viability, T/C: 115% and 103% and 100%
Compound 10 µM
  viability, T/C: 100% and 98.1% and 91.6%
Curve of compound
  IC50: > 10 µM

## COc1ccc([C@@H](O)c2cc(-c3ncnc4cc(N5CCOCC5)ccc34)c(F)cc2Cl)nn1
Compound 0.0316 µM
  viability, T/C: 105% and 101% and 113%
Compound 0.1 µM
  viability, T/C: 93.6% and 91.3% and 99.9%
Compound 0.316 µM
  viability, T/C: 100% and 94.7% and 106%
Compound 1 µM
  viability, T/C: 77.6% and 101% and 102%
Compound 3.16 µM
  viability, T/C: 83% and 75.1% and 92.5%
Compound 10 µM
  viability, T/C: 54.5% and 64.9% and 65.9%
Curve of compound
  IC50: > 10 µM

## COc1cccc(OCCCN)c1-c1cc(Nc2cnc(C#N)cn2)n[nH]1
Compound 0.00316 µM
  viability, T/C: 96.6% and 99.2% and 101%
Compound 0.0316 µM
  viability, T/C: 33% and 47.4% and 44%
Compound 0.1 µM
  viability, T/C: 32.7% and 40.1% and 36.7%
Compound 0.316 µM
  viability, T/C: 32.7% and 38.2% and 35.7%
Compound 1 µM
  viability, T/C: 28.8% and 37.6% and 34.5%
Curve of compound
  IC50: 0.0153 µM and 0.0294 µM and 0.0264 µM

## COc1cccc2c1C(=O)c1c(O)c3c(c(O)c1C2=O)CC(O)(C(=O)CO)CC3OC1CC(N)C(O)C(C)O1 (configuration not stated)
Compound 0.0316 µM
  viability, T/C: 103% and 101% and 100%
Compound 0.1 µM
  viability, T/C: 82.1% and 80.8% and 80.6%
Compound 0.316 µM
  viability, T/C: 72% and 89.1% and 66.9%
Compound 1 µM
  viability, T/C: 89.1% and 74.3% and 83.1%
Compound 3.16 µM
  viability, T/C: 69.1% and 72.3% and 65.9%
Compound 10 µM
  viability, T/C: 59.9% and 62.4% and 48.1%
Curve of compound
  IC50: > 10 µM

## Cc1cccc(N(C)C(=O)C2C(O)CCN2c2nc(C)cc(C(F)(F)F)c2C#N)c1 (configuration not stated)
Compound 0.0316 µM
  viability, T/C: 107% [middle of 13 runs]
Compound 0.1 µM
  viability, T/C: 108% [middle of 13 runs]
Compound 0.316 µM
  viability, T/C: 110% [middle of 13 runs]
Compound 1 µM
  viability, T/C: 106% [middle of 13 runs]
Compound 3.16 µM
  viability, T/C: 106% [middle of 13 runs]
Compound 10 µM
  viability, T/C: 110% [middle of 13 runs]
[1]
  IC50: > 10 µM
[2]
  IC50: > 10 µM

## Cn1ncnc1[C@H]1c2n[nH]c(=O)c3cc(F)cc(c23)N[C@@H]1c1ccc(F)cc1
Compound 0.000316 µM
  viability, T/C: 107% and 103% and 109%
Compound 0.001 µM
  viability, T/C: 95.2% and 97.2% and 98.7%
Compound 0.00316 µM
  viability, T/C: 95.3% and 101% and 95.1%
Compound 0.01 µM
  viability, T/C: 107% and 103% and 104%
Compound 0.0316 µM
  viability, T/C: 103% and 104% and 98.2%
Compound 0.1 µM
  viability, T/C: 91.1% and 96.3% and 85.5%
Curve of compound
  IC50: > 0.1 µM

## Nc1ccc(C#CCN(C(=O)Cc2ncc(C(F)(F)F)cc2C(F)(F)F)c2ccc(F)cc2)nn1
Compound 0.0316 µM
  viability, T/C: 104% [middle of 13 runs]
Compound 0.1 µM
  viability, T/C: 106% [middle of 13 runs]
Compound 0.316 µM
  viability, T/C: 106% [middle of 13 runs]
Compound 1 µM
  viability, T/C: 105% [middle of 13 runs]
Compound 3.16 µM
  viability, T/C: 105% [middle of 13 runs]
Compound 10 µM
  viability, T/C: 107% [middle of 13 runs]
[2]
  IC50: > 10 µM

## Nc1ccn(C2OC(CO)C(O)C2(F)F)c(=O)n1 (configuration not stated)
Compound 0.0316 µM
  viability, T/C: 100% and 102% and 104%
Compound 0.1 µM
  viability, T/C: 83.2% and 86.6% and 83.9%
Compound 0.316 µM
  viability, T/C: 72.9% and 76.2% and 66.8%
Compound 1 µM
  viability, T/C: 78.3% and 79.2% and 66%
Compound 3.16 µM
  viability, T/C: 71.9% and 82% and 62.9%
Compound 10 µM
  viability, T/C: 50.5% and 62.5% and 58.2%
Curve of compound
  IC50: > 10 µM

## O=C(Nc1ccc(O)c(NS(=O)(=O)c2ccc(F)cc2)c1)c1ccc(-c2ccccc2)cc1
Compound 0.0316 µM
  viability, T/C: 104% and 99.9% and 101%
Compound 0.1 µM
  viability, T/C: 99.1% and 96.7% and 91.7%
Compound 0.316 µM
  viability, T/C: 102% and 97.6% and 88.4%
Compound 1 µM
  viability, T/C: 101% and 99.2% and 96%
Compound 3.16 µM
  viability, T/C: 103% and 99.1% and 99.2%
Compound 10 µM
  viability, T/C: 104% and 100% and 93.4%
Curve of compound
  IC50: > 10 µM

## O=C(c1cc(Cc2n[nH]c(=O)c3ccccc23)ccc1F)N1CCN(C(=O)C2CC2)CC1
Compound 0.0316 µM
  viability, T/C: 99.6% and 98.7% and 100%
Compound 0.1 µM
  viability, T/C: 99% and 96.3% and 98.5%
Compound 0.316 µM
  viability, T/C: 96.2% and 100% and 101%
Compound 1 µM
  viability, T/C: 91.8% and 106% and 102%
Compound 3.16 µM
  viability, T/C: 97.4% and 116% and 113%
Compound 10 µM
  viability, T/C: 102% and 100% and 101%
Curve of compound
  IC50: > 10 µM

## O=c1[nH]cc(F)c(=O)[nH]1
Compound 0.0316 µM
  viability, T/C: 92.8% and 104% and 97.2%
Compound 0.1 µM
  viability, T/C: 88.4% and 98% and 84.1%
Compound 0.316 µM
  viability, T/C: 81.6% and 85.3% and 79.5%
Compound 1 µM
  viability, T/C: 79.2% and 93.5% and 73.6%
Compound 3.16 µM
  viability, T/C: 86.3% and 94.5% and 74.5%
Compound 10 µM
  viability, T/C: 76.5% and 86% and 63.1%
Curve of compound
  IC50: > 10 µM

Reference: PubChem BioAssay AID1963850 (Molecular Pharmacology Branch, DTP, NCI, 2024)
